Experimental data: ChEMBL document CHEMBL5625206, “Design, synthesis, and evaluation of novel pleuromutilin aryl acrylate derivatives as promising broad-spectrum antibiotics especially for combatting multi-drug resistant gram-negative bacteria” (Eur J Med Chem, 2023)
Active and inactive are the calls of the source. The calls are words filed in the database; no cut-off is given here.

Key:
[1] = test system: Escherichia coli; experiment: Bactericidal activity against Escherichia coli ATCC 25922 assessed as reduction in colony count at 2 times MIC incubated for 24 hrs by time kill assay relative to control; format: functional
[2] = Cytotoxicity against human HepG2 cells incubated for 24 hrs by CCK8 assay; format: toxicity, cell-based
[3] = Toxicity in neutropenic Kunming mouse model infected with methicillin-resistant Staphylococcus aureus ATCC 33591 assessed as survival rate at 20 mg/kg, ip measured after 7 days relative to control; format: organism-based; conditions: in vivo, 168 h, time 7 day
[4] = test system: Staphylococcus aureus; experiment: Antibacterial activity against methicillin-resistant Staphylococcus aureus ATCC 33591 infected in neutropenic Kunming mouse model assessed as reduction in infection-induced liver damage at 20 mg/kg, ip measured after 7 days; format: functional, organism-based; conditions: time 7.0 day
[5] = test system: Staphylococcus aureus; experiment: Antibacterial activity against methicillin-resistant Staphylococcus aureus ATCC 33591 infected in neutropenic Kunming mouse model assessed as reduction in infection-induced inflammatory cell infiltration in lung at 20 mg/kg, ip measured after 7 days; format: functional, organism-based; conditions: time 7.0 day
[6] = Clearance in fasted Sprague-Dawley rat at 1 mg/kg, iv by LC-MS/MS analysis; format: ADME, organism-based; conditions: in vivo
[7] = Toxicity in Sprague-Dawley rat assessed as abnormal clinical symptoms at 10 to 100 mg/kg, IG measured for 14 days; format: organism-based; conditions: in vivo, po, 336 h, dose 10-100 mg/kg, time 14 day
[8] = Toxicity in fasted female Sprague-Dawley rat assessed as body weight at 148 mg/kg, IG measured after 14 days (reference value: 214.3 +/- 9.8 g); format: organism-based; conditions: in vivo, po, 336 h, time 14 day
[9] = Toxicity in fasted male Sprague-Dawley rat assessed as animal growth rate at 100 mg/kg, IG measured for 14 days (reference value: 46.53 +/- 3.19 g); format: organism-based; conditions: in vivo, po, 336 h, time 14 day
[10] = Toxicity in fasted female Sprague-Dawley rat assessed as relative kidney weight ratio at 224 mg/kg, IG measured for 14 days (reference value: 0.802 +/- 0.031); format: organism-based; conditions: in vivo, po, 336 h, time 14 day
[11] = Toxicity in fasted male Sprague-Dawley rat assessed as relative spleen weight ratio at 331 mg/kg, IG measured for 14 days (reference value: 0.246 +/- 0.037); format: organism-based; conditions: in vivo, po, 336 h, time 14 day
[12] = Toxicity in fasted female Sprague-Dawley rat assessed as relative ovary weight ratio at 100 mg/kg, IG measured for 14 days (reference value: 0.061 +/- 0.010); format: organism-based; conditions: in vivo, po, 336 h, time 14 day
[13] = Toxicity in fasted male Sprague-Dawley rat assessed as relative testis weight ratio at 224 mg/kg, IG measured for 14 days (reference value: 0.993 +/- 0.052); format: organism-based; conditions: in vivo, po, 336 h, time 14 day

SMILES: C=C[C@]1(C)C[C@@H](OC(=O)COC(=O)/C=C/c2ccc(N(C)C)cc2)[C@]2(C)[C@H](C)CC[C@]3(CCC(=O)[C@H]32)[C@@H](C)[C@@H]1O
- Activity [1]: 6.14 log10CFU/ml
- CC50 at 24 h [2]: > 200 µM
- Survival [3]: 90%
- Activity [4]: Active
- Activity [5]: Active
- clearance [6]: 35 mL/min/kg
- Activity [7]: Non-Toxic
- Activity [8]: 210.5 g
- Activity [9]: 46.18%
- Ratio [10]: 0.839
- Ratio [11]: 0.235
- Ratio [12]: 0.071
- Ratio [13]: 0.981
